Experiments:
[1] = system: normal human fibroblast (NHF) cells; assay: NHF Cell Cytotoxicity Assay (CellTiter-Blue, 72 h), off-target effects; assay type: cell-based; settings: Homo sapiens, Fibroblast; pooled NHF cells
Description: In some embodiments, the off-target effects of the compounds are evaluated in healthy human cells, such as in a normal human fibroblast (NHF) cell cytotoxicity assay.
Cell viability was examined following treatment at various concentrations of inhibitor (0.097656-50 μM) using a cell Titer-Blue cell viability assay. 1×10^4 normal human fibroblast cells per well were plated in 96-well assay plates in culture medium. All cells are grown in DMEM, IMDM and RPMI-1640 were supplemented with 10% FBS. After 24 hours, test compounds and vehicle controls are added to appropriate wells so the final volume was 100 μl in each well. The cells are cultured for the desired test exposure period (72 hours) at 37° C. and 5% CO2. The assay plates are removed from 37° C. incubator and 20 μL/well of CellTiter-Blue® Reagent is added. The plates are incubated using standard cell culture conditions for 1-4 hours and the plates are shaken for 10 seconds and record fluorescence at 560/590nm. For each sample well, value is normalized between the DMSO control and the highest concentration in case of plateau, and converted into a percentage. In the absence of plateau, minimum lecture is obtained from a different sample within the same experiment. For each concentration, the four replicates are averaged and standard deviation calculated. Data is fitted to a log(inhibitor) vs response curve with variable slope model using Microsoft Excel, obtaining IC50 and Hill slope variables.
A person skilled in the art would appreciate that a higher IC50 value in this NHF assay can indicate lower off-target effects.

MV4-11 cells = assay: MV4-11 Cell Cytotoxicity Assay (CellTiter-Blue, 72 h); assay type: cell-based, human; settings: Homo sapiens, MV4-11; MV-4-11 cells
Summary of the method: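 Cells seeded 24 h before treatment, then exposed 72 h at 37° C, 5% CO2 to inhibitors in triplicate, top concentration 50 μM with 1:2 serial dilutions (0.5% DMSO vehicle). Viability read by CellTiter-Blue fluorescence at 560/590 nm after 1 h.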

glutathione (GSH) = assay: Reactivity Profiling with Glutathione (GSH), half-life by HPLC; settings: 5 mM glutathione (GSH) in IMDM with 10% FBS

SMILES	IC50 [1] [nM]	IC50 (MV4-11 cells) [nM]	half-life at 25 μM (glutathione (GSH)) [h]
COc1cc(C(=O)O)ccc1N(Cc1cc(C2CC2)cc(C(C)(C)C)c1)C(=O)CN(Cc1ccccc1F)S(=O)(=O)c1c(F)c(F)c(F)c(F)c1F [Compound 1061, 4-(N-(3-(tert-butyl)-5-cyclopropylbenzyl)-2-(N-(2-fluorobenzyl)-(2,3,4,5,6-pentafluoro-phenyl)sulfonamido)acetamido)-3-methoxybenzoic acid]	10000 to 20000	0.01 to 316	2.37 to 4.12
CC(C)(C)c1cc(CN(C(=O)CN(Cc2ccccc2F)S(=O)(=O)c2c(F)c(F)c(F)c(F)c2F)c2ccc(C(=O)O)cc2OC2CC2)cc(C2CC2)c1 [Compound 1062, 4-(N-(3-(tert-butyl)-5-cyclopropylbenzyl)-2-(N-(2-fluorobenzyl)-(2,3,4,5,6-pentafluoro-phenyl)sulfonamido)acetamido)-3-cyclopropoxybenzoic acid]	10000 to 20000	0.01 to 316	9.23 to 1670
COc1cc(C(=O)O)ccc1N(Cc1cc(C2CC2)cc(C(C)(C)C)c1)C(=O)CN(Cc1c(F)c(F)c(F)c(F)c1F)S(=O)(=O)c1c(F)c(F)c(F)c(F)c1F [Compound 1066, 4-(N-(3-(tert-butyl)-5-cyclopropylbenzyl)-2-(N-((perfluorophenyl)methyl)-(2,3,4,5,6-pentafluoro-phenyl)sulfonamido)acetamido)-3-methoxybenzoic acid]	1 to 10000	0.01 to 316	4.12 to 9.23
COc1cc(C(=O)O)ccc1N(Cc1cc(C2CC2)cc(C(C)(C)C)c1)C(=O)CN(Cc1ccccc1C#N)S(=O)(=O)c1c(F)c(F)c(F)c(F)c1F [Compound 1075, 4-(N-(3-(tert-butyl)-5-cyclopropylbenzyl)-2-(N-(2-cyanobenzyl)-(2,3,4,5,6-pentafluorophenyl)sulfon-amido)acetamido)-3-methoxybenzoic acid]	10000 to 20000	0.01 to 316	0.00167 to 2.37
COc1cc(C(=O)O)ccc1N(Cc1cc(C2CC2)cc(C(C)(C)C)c1)C(=O)CN(Cc1ccncc1F)S(=O)(=O)c1c(F)c(F)c(F)c(F)c1F [Compound 1078, 4-(N-(3-(tert-butyl)-5-cyclopropylbenzyl)-2-(N-((3-fluoropyridin-4-yl)methyl)-(2,3,4,5,6-pentafluoro-phenyl)sulfonamido)acetamido)-3-methoxybenzoic acid]	1 to 10000	316 to 1000	0.00167 to 2.37
COc1cc(C(=O)O)ccc1N(Cc1cc(C2CC2)cc(C(C)(C)C)c1)C(=O)CN(Cc1c(F)cc(F)cc1F)S(=O)(=O)c1c(F)c(F)c(F)c(F)c1F [Compound 1081]	1 to 10000	0.01 to 316	4.12 to 9.23
COc1cc(C(=O)O)ccc1N(Cc1cc(C2CC2)cc(C(C)(C)C)c1)C(=O)CN(Cc1ccccc1C(F)(F)F)S(=O)(=O)c1c(F)c(F)c(F)c(F)c1F [Compound 1087, 4-(N-(3-(tert-butyl)-5-cyclopropylbenzyl)-2-(N-(2-(trifluoromethyl)benzyl)-(2,3,4,5,6-pentafluoro-phenyl)sulfonamido)acetamido)-3-methoxybenzoic acid]	20000 to 30000	0.01 to 316	4.12 to 9.23
CC(C)(C)c1cc(CN(C(=O)CN(Cc2ccccc2F)S(=O)(=O)c2c(F)c(F)c(F)c(F)c2F)c2ccc(C(=O)O)cc2C2CC2)cc(C2CC2)c1 [Compound 1091, 4-(N-(3-(tert-butyl)-5-cyclopropylbenzyl)-2-(N-(2-fluorobenzyl)-(2,3,4,5,6-pentafluoro-phenyl)sulfonamido)acetamido)-3-cyclopropylbenzoic acid]	1 to 10000	0.01 to 316	4.12 to 9.23
CC(C)(C)c1cc(CN(C(=O)CN(Cc2ccccc2F)S(=O)(=O)c2c(F)c(F)c(F)c(F)c2F)c2ccc(C(=O)O)cc2C(F)(F)F)cc(C2CC2)c1 [Compound 1092, 4-(N-(3-(tert-butyl)-5-cyclopropylbenzyl)-2-(N-(2-fluorobenzyl)-(2,3,4,5,6-pentafluoro-phenyl)sulfonamido)acetamido)-3-(trifluoromethyl)benzoic acid]	10000 to 20000	0.01 to 316	4.12 to 9.23
CC(C)(C)c1cc(CN(C(=O)CN(Cc2ccccc2F)S(=O)(=O)c2c(F)c(F)c(F)c(F)c2F)c2ccc(C(=O)O)cc2OC2CCCC2)cc(C2CC2)c1 [Compound 1094, 4-(N-(3-(tert-butyl)-5-cyclopropylbenzyl)-2-(N-(2-fluorobenzyl)-(2,3,4,5,6-pentafluoro-phenyl)sulfonamido)acetamido)-3-(cyclopentyloxy)benzoic acid]	20000 to 30000	0.01 to 316	9.23 to 1670
COc1cc(C(=O)O)ccc1N(Cc1cc(C2CC2)cc(C(C)(C)C)c1)C(=O)CN(Cc1ncccc1C(F)(F)F)S(=O)(=O)c1c(F)c(F)c(F)c(F)c1F [Compound 1098, 4-(N-(3-(tert-butyl)-5-cyclopropylbenzyl)-2-(N-((3-(trifluoromethyl)pyridin-2-yl)methyl)-(2,3,4,5,6-pentafluoro-phenyl)sulfonamido)acetamido)-3-methoxybenzoic acid]	20000 to 30000	316 to 1000	2.37 to 4.12
CC(C)(C)c1cc(CN(C(=O)CN(Cc2c(F)c(F)c(F)c(F)c2F)S(=O)(=O)c2c(F)c(F)c(F)c(F)c2F)c2ccc(C(=O)O)cc2OC2CC2)cc(C2CC2)c1 [Compound 1108, 4-(N-(3-(tert-butyl)-5-cyclopropylbenzyl)-2-(N-((perfluorophenyl)methyl)-(2,3,4,5,6-pentafluorophenyl)sulfonamido)acetamido)-3-cyclopropoxybenzoic acid]	1 to 10000	0.01 to 316	9.23 to 1670
CC(C)(C)c1cc(CN(C(=O)CN(Cc2ccccc2C(F)(F)F)S(=O)(=O)c2c(F)c(F)c(F)c(F)c2F)c2ccc(C(=O)O)cc2OC2CC2)cc(C2CC2)c1 [Compound 1111, 4-(N-(3-(tert-butyl)-5-cyclopropylbenzyl)-2-(N-(2-(trifluoromethyl)benzyl)-(2,3,4,5,6-pentafluoro-phenyl)sulfonamido)acetamido)-3-cyclopropoxybenzoic acid]	30000 to 100000	0.01 to 316	9.23 to 1670
COc1cc(C(=O)O)ccc1N(Cc1cc(C2CC2)cc(C(C)(C)C)c1)C(=O)CN(Cc1cnccc1C(F)(F)F)S(=O)(=O)c1c(F)c(F)c(F)c(F)c1F [Compound 1116, 4-(N-(3-(tert-butyl)-5-cyclopropylbenzyl)-2-(N-((4-(trifluoromethyl)pyridin-3-yl)methyl)-(2,3,4,5,6-pentafluoro-phenyl)sulfonamido)acetamido)-3-methoxybenzoic acid]	10000 to 20000	0.01 to 316	2.37 to 4.12
CC(C)(C)c1cc(CN(C(=O)CN(Cc2ncccc2C(F)(F)F)S(=O)(=O)c2c(F)c(F)c(F)c(F)c2F)c2ccc(C(=O)O)cc2OC2CC2)cc(C2CC2)c1 [Compound 1119, 4-(N-(3-(tert-butyl)-5-cyclopropylbenzyl)-2-(N-((3-(trifluoromethyl)pyridin-2-yl)methyl)-(2,3,4,5,6-pentafluoro-phenyl)sulfonamido)acetamido)-3-cyclopropoxybenzoic acid]	30000 to 100000	316 to 1000	4.12 to 9.23
CC(C)(C)c1cc(CN(C(=O)CN(Cc2c(F)cc(F)cc2F)S(=O)(=O)c2c(F)c(F)c(F)c(F)c2F)c2ccc(C(=O)O)cc2OC2CC2)cc(C2CC2)c1 [Compound 1122, 4-(N-(3-(tert-butyl)-5-cyclopropylbenzyl)-2-(N-(2,4,6-trifluorobenzyl)-(2,3,4,5,6-pentafluoro-phenyl)sulfonamido)acetamido)-3-cyclopropoxybenzoic acid]	10000 to 20000	0.01 to 316	9.23 to 1670
CC(C)(C)c1cc(CN(C(=O)CN(Cc2c(F)cc(F)cc2F)S(=O)(=O)c2c(F)c(F)c(F)c(F)c2F)c2ccc(C(=O)O)cc2C2CC2)cc(C2CC2)c1 [Compound 1123, 4-(N-(3-(tert-butyl)-5-cyclopropylbenzyl)-2-(N-(2,4,6-trifluorobenzyl)-(2,3,4,5,6-pentafluoro-phenyl)sulfonamido)acetamido)-3-cyclopropylbenzoic acid]	1 to 10000	0.01 to 316	9.23 to 1670
O=C(O)c1ccc(N(Cc2cc(C3CC3)cc(C3CC3)c2)C(=O)CN(Cc2ccccc2C(F)(F)F)S(=O)(=O)c2c(F)c(F)c(F)c(F)c2F)c(OC2CC2)c1 [Compound 1141]	20000 to 30000	0.01 to 316	4.12 to 9.23
CC(C)(C)c1cc(CN(C(=O)CN(Cc2cnccc2C(F)(F)F)S(=O)(=O)c2c(F)c(F)c(F)c(F)c2F)c2ccc(C(=O)O)cc2OC2CC2)cc(C2CC2)c1 [Compound 1142, 4-(N-(3-(tert-butyl)-5-cyclopropylbenzyl)-2-(N-((4-(trifluoromethyl)pyridin-3-yl)methyl)-(2,3,4,5,6-pentafluoro-phenyl)sulfonamido)acetamido)-3-cyclopropoxybenzoic acid]	20000 to 30000	0.01 to 316	4.12 to 9.23
